Tests used:
[1] = Concentration required to reduce cell survival tunder hypoxic conditions using the UV4 aerobic cells; format: functional, Cricetulus griseus
SK-OV-3 [2] = assay: (§1) Aerobic cytotoxic activity was evaluated by the growth inhibition of SKOV (human ovarian cancer line) aerobic cells; format: functional, cell-based
[3] = Aerobic cytotoxic activity was evaluated by the growth inhibition of UV4 aerobic cells; format: functional, cell-based; settings: Cricetulus griseus
[4] = Aerobic cytotoxic activity was evaluated by the growth inhibition of AA8 (chinese hamster) aerobic cells; format: functional, cell-based; settings: Cricetulus griseus, CHO-AA8
SK-OV-3 [5] = assay: as §1; format: functional
[6] = Concentration required to 10% of controls reduce cell survival under hypoxic conditions using the UV4 aerobic cells; format: functional, Cricetulus griseus

Row | SMILES | CT10 [1] [µM] | IC50 (SK-OV-3 [2]) [mM] | IC50 [3] [µM] | IC50 [4] [µM] | CT10 (SK-OV-3 [5]) [µM] | CT10 [6] [µM]
1 | NC(=O)c1cc(N(CCCl)CCCl)c([N+](=O)[O-])cc1[N+](=O)[O-] | 95 | > 1 | 870 | 1450 |  | 
2 | CN(C)CCNC(=O)c1cc(N(CCCl)CCCl)c([N+](=O)[O-])cc1[N+](=O)[O-] |  |  | 3.1 | 220 | 1300 | 400
